Measurements from patent publication US5932742A, “Arylsulfonylimidazolone derivatives as an antitumor agent” (priority 1996, dated 1999).
Values after ≈ are worked out from the molar mass of the structure shown. Structures can show the parent of a compound that is named as a salt. Where two headings read alike, the source gives them in different places.

Experiments:
[1] = system: A549 (ATCC CCL 185): human lung carcinoma; experiment: In vitro antitumor activity, MTT assay, A549; assay type: cell-based; details: Homo sapiens, A549, 48 h
Method in brief: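 A549 cells in RPMI 1640 with 10% FBS, 10,000 cells/well, pre-cultured 24 hrs, then exposed 48 hrs at 37° C to compound at 20 to 0.00128 μg/ml final (5-fold steps, DMSO below 0.5%). MTT added for 4 hrs, formazan dissolved in DMSO and read at 540nm; IC50 by linear regression of % of control.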

[2] = system: K562 (ATCC CCL 243): human chronic myelogenous leukemia; experiment: In vitro antitumor activity, MTT assay, K562; assay type: cell-based; details: Homo sapiens, K562, 48 h
Method in brief: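 K562 cells (10,000/well) pre-cultured 24 hrs, then exposed 48 hrs at 37° C. to serially 5-fold diluted compound, final 20 μg/ml to 0.00128 μg/ml, DMSO below 0.5%. MTT added 4 hrs; formazan dissolved in DMSO, A540 read. Cytotoxicity as test/control absorbance; IC50 by linear regression.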

[3] = system: Colo205 (ATCC CCL 222): human colon adenocarcinoma; experiment: In vitro antitumor activity, MTT assay, Colo205; assay type: cell-based; details: Homo sapiens
Method in brief: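 Colo205 cells in RPMI 1640/10% FBS were exposed 48 h at 37 °C to 5-fold serial dilutions, final 20 to 0.00128 µg/ml, DMSO below 0.5%. MTT added for 4 h, formazan dissolved in DMSO, A540 read versus medium control; IC50 by linear regression.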

[4] = system: SK-OV-3 (ATCC HTB 77): human ovarian adenocarcinoma; experiment: In vitro antitumor activity, MTT assay, SK-OV-3; assay type: cell-based; details: Homo sapiens
Method in brief: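 Cells seeded at 10,000 per well, grown 24 h, then exposed 48 h at 37 °C to compound at final 20 to 0.00128 μg/ml (5-fold dilutions, DMSO below 0.5%). MTT added for 4 h, formazan dissolved in DMSO, absorbance read at 540 nm; IC50 estimated by linear regression.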

[5] = system: KB (ATCC CCL 17): human epidermoid carcinoma; experiment: In vitro antitumor activity, MTT assay, KB; assay type: cell-based; details: Homo sapiens, read-out: IC50 (KB)
Procedure: In vitro antitumor activity against human tumor cell lines
In vitro antitumor activity of the compounds according to the present invention was determined by MTT assay method against the following human tumor cell lines:
KB (ATCC CCL 17): human epidermoid carcinoma
In this test, the known antineoplastic compounds, Doxorubicin and Sulofenur, were used as the comparative agents.
Each of the tumor cells was cultured in RPMI 1640 media containing 10% fetal bovine serum, 100 IU/ml penicillin and 100 μg/ml streptomycin, and then periodically subcultured once or twice per week in trypsin-EDTA solution containing 0.05% trypsin and 0.53mM EDTA.4Na. The human tumor cell line thus obtained (10,000cells/100 μl) was plated on 96-well microplate and then cultured for 24 hrs at 37° C. in a 5% CO2 incubator. Test compound was dissolved in DMSO, sterilized with 0.22 μm PVDF filter, and then serially 5-fold diluted from 40 μg/ml to 0.00256μg/ml. 100 μl of the sample solution thus prepared and RPMI 1640 medium only (control group) were added to 96-well microplate containing the human tumor cell, respectively. The final concentration of the test compound was in the range from 20 μg/ml to 0.00128 μg/ml and the concentration of DMSO was below 0.5%. The cells were cultured for 48 hrs at 37° C. in a 5% CO2 incubator. MTT(3-(4,5-Dimethylthiazole-2-yl)-e,5-diphenyltetrazoliumbromide) was dissolved in physiological saline in a concentration of 2 mg/ml and the resulting solution was filtered through 0.22 μm PTFE filter. 25 μl of MTT solution thus prepared was added to each well of 96-well microplate and incubated for additional 4 hrs at 37° C. in a 5% CO2 incubator. Then, the content of microplate was centrifuged at 1000 rpm for 10 min, and supernatant was removed by flicking. The formazan formed from MTT by mitochondrial succinate dehydrogenase was dissolved in 100 μl of DMSO. The absorbance of each well was measured at 540nm by micro ELISA reader and the cytotoxicity was calculated by dividing the absorbance of test group by the absorbance of control group. After the calculated cytotoxicity (%) was plotted, the concentration of 50% tumor growth inhibition concentration (IC50) was estimated by Linear-Regression method.

[6] = system: P388 murine leukemia cells; experiment: In vivo antitumor activity against P388 murine leukemia cell; design: species or system BDF1 mouse; details: once per 2 days for 10 days, median survival time
Procedure: In vivo antitumor activity against P388 murine leukemia cell
P388 murine leukemia cells were injected into BDF1 mouse intraperitoneally and grown in the peritoneal cavity. The P388 cells were periodically exudated and reinjected intraperitoneally into mouse for subculture.
The cells were exudated, washed, resuspended in saline (2×10^7 cells/ml), and then injected intraperitoneally again into BDF1 mouse (2×10^6 cells/0.1 ml).
Test compound dissolved in appropriate vehicle was administered intraperitonealy or orally into the mouse which was implanted with P388 murine leukemia tumor cells in the frequency of once per 2 days for 10 days. The vehicle was administered into the mouse of control group. Then, the number of live animals were daily checked to estimate the median survival time (MST).
T/C ratio(%) of each test compound was calculated according to the following formula, and the test results are shown in Table 6.
T/C(%)=(MST of test group.div.MST of control group)×100

[7] = COLO 205, Table 2, 48 hrs, read-out: IC50 (Colo205)
[8] = COLO 205, Table 3, 48 hrs, read-out: IC50 (Col205)

| Compound | IC50 ([1]; Table 2) | IC50 [3, 7] | IC50 ([4]; SK-OV-3, Table 2, 48 hrs) | IC50 ([5]; Table 2, MTT, 48 hrs) | other results |
| --- | --- | --- | --- | --- | --- |
| COc1cccc2c1C(=O)c1c(O)c3c(c(O)c1C2=O)C[C@@](O)(C(=O)CO)C[C@@H]3O[C@H]1C[C@H](N)[C@H](O)[C@H](C)O1 [Doxorubicin, reference compound] |  |  |  |  | IC50 ([1]; Table 1): 0.742 µg/mL (≈ 1.37 µM); IC50 ([1]; Table 3): 0.67 µg/mL (≈ 1.23 µM); IC50 ([1]; Table 4): 1.08 µg/mL (≈ 1.99 µM); IC50 ([1]; Table 5): 1.68 µg/mL (≈ 3.09 µM); IC50 ([2]; read-out: IC50 (K562), Table 3): 0.276 µg/mL (≈ 0.508 µM); IC50 ([2]; read-out: IC50 (K562), Table 4): 0.962 µg/mL (≈ 1.77 µM); IC50 ([2]; read-out: IC50 (K562), Table 5): 0.78 µg/mL (≈ 1.44 µM); IC50 ([3]; COLO 205, 48 h, read-out: IC50 (Col205), Table 3): 6.3 µg/mL (≈ 11.6 µM); IC50 ([3]; COLO 205, 48 h, read-out: IC50 (Colo205), Table 1): 0.973 µg/mL (≈ 1.79 µM); IC50 ([3]; COLO 205, 48 h, read-out: IC50 (Colo205), Table 5): 0.961 µg/mL (≈ 1.77 µM); IC50 ([4]; SK-OV-3, 48 h, Table 1): 2.25 µg/mL (≈ 4.15 µM); IC50 ([4]; SK-OV-3, 48 h, Table 3): 1.31 µg/mL (≈ 2.42 µM); IC50 ([4]; SK-OV-3, 48 h, Table 4): 2.25 µg/mL (≈ 4.15 µM); IC50 ([4]; SK-OV-3, 48 h, Table 5): 1.6 µg/mL (≈ 2.94 µM); IC50 ([5]; 48 h): 0.914 µg/mL (≈ 1.68 µM) |
| CC1Cc2cc(S(=O)(=O)n3cc(-c4ccccc4)[nH]c3=O)ccc2N1C(=O)c1ccc(N)cc1 (stereo not drawn) [Example 12, 4-phenyl-1-[N-(4-aminobenzoyl)-2-methylindoline-5-sulfonyl]-2-imidazolone.HCl] |  |  |  |  | IC50 ([1]; Table 1): 0.321 µg/mL; T/C rate (%) ([6]; 65 mg/kg p.o.): 115.4%; IC50 ([3]; COLO 205, Table 1, 48 hrs, read-out: IC50 (Colo205)): 0.861 µg/mL; IC50 ([4]; SK-OV-3, Table 1, 48 hrs): 0.509 µg/mL; IC50 ([5]; Table 1, MTT, 48 hrs): 0.072 µg/mL |
| CC1Cc2cc(S(=O)(=O)n3cc(-c4ccccc4)[nH]c3=O)ccc2N1C(=O)c1ccc(NC(=O)CCl)cc1 (stereo not drawn) [Example 20, 4-phenyl-1-[N-(4-chloroacetylaminobenzoyl)-2-methylindoline-5-sulfonyl]-2-imidazolone] | 0.509 µg/mL (≈ 0.924 µM) | 0.91 µg/mL (≈ 1.65 µM) | 0.598 µg/mL (≈ 1.09 µM) | 0.198 µg/mL (≈ 0.359 µM) |  |
| CC1Cc2cc(S(=O)(=O)n3cc(-c4ccccc4)[nH]c3=O)ccc2N1C(=O)CCl (stereo not drawn) [Example 21, 4-phenyl-1-(N-chloroacetyl-2-methylindoline-5-sulfonyl)-2-imidazolone] | 1.13 µg/mL (≈ 2.61 µM) | 0.834 µg/mL (≈ 1.93 µM) | 4.71 µg/mL (≈ 10.9 µM) | 1.53 µg/mL (≈ 3.54 µM) |  |
| CNCC(=O)N1c2ccc(S(=O)(=O)n3cc(-c4ccccc4)[nH]c3=O)cc2CC1C (stereo not drawn) [Example 22, 4-phenyl-1-(N-methylaminoacetyl-2-methylindoline-5-sulfonyl)-2-imidazolone.HCl] | 3.24 µg/mL | 3.8 µg/mL | 3.08 µg/mL | 0.688 µg/mL |  |
| CC(C)NCC(=O)N1c2ccc(S(=O)(=O)n3cc(-c4ccccc4)[nH]c3=O)cc2CC1C (stereo not drawn) [Example 23, 4-phenyl-1-(N-isopropylaminoacetyl-2-methylindoline-5-sulfonyl)-2-imidazolone.HCl] | 1.14 µg/mL | 3.45 µg/mL | 4.03 µg/mL | 0.429 µg/mL |  |
| CC(C)NCC(=O)N1CCc2cc(S(=O)(=O)n3cc(-c4ccccc4)[nH]c3=O)ccc21 [Example 24, 4-phenyl-1-(N-isopropylaminoacetylindoline-5-sulfonyl)-2-imidazolone.HCl] | 3.48 µg/mL | 3.35 µg/mL | 8.77 µg/mL | 0.879 µg/mL |  |
| CC(C)CNCC(=O)N1c2ccc(S(=O)(=O)n3cc(-c4ccccc4)[nH]c3=O)cc2CC1C (stereo not drawn) [Example 25, 4-phenyl-1-(N-isobutylaminoacetyl-2-methylindoline-5-sulfonyl)-2-imidazolone.HCl] | 3.23 µg/mL | 3.07 µg/mL | 1.4 µg/mL | 0.246 µg/mL |  |
| CC(C)CNCC(=O)N1CCc2cc(S(=O)(=O)n3cc(-c4ccccc4)[nH]c3=O)ccc21 [Example 26, 4-phenyl-1-(N-isobutylaminoacetylindoline-5-sulfonyl)-2-imidazolone.HCl] | 5.47 µg/mL | 9.09 µg/mL | 10.1 µg/mL | 1.99 µg/mL |  |
| CC1Cc2cc(S(=O)(=O)n3cc(-c4ccccc4)[nH]c3=O)ccc2N1C(=O)CNC(C)(C)C (stereo not drawn) [Example 27, 4-phenyl-1-(N-t-butylaminoacetyl-2-methylindoline-5-sulfonyl)-2-imidazolone.HCl] | 1.45 µg/mL | 5.68 µg/mL | 2.44 µg/mL | 0.317 µg/mL |  |
| C=CCNCC(=O)N1c2ccc(S(=O)(=O)n3cc(-c4ccccc4)[nH]c3=O)cc2CC1C (stereo not drawn) [Example 28, 4-phenyl-1-(N-allylaminoacetyl-2-methylindoline-5-sulfonyl)-2-imidazolone.HCl] | 0.604 µg/mL | 1.05 µg/mL | 1.52 µg/mL | 1.12 µg/mL |  |
| CCNC(=O)N1CCc2cc(S(=O)(=O)N3CC(c4ccccc4)NC3=O)ccc21 (stereo not drawn) [Example 29, 4-phenyl-1-(N-ethylcarbamoylindoline-5-sulfonyl)4,5-dihydro-2-imidazolone] |  |  |  |  | IC50 ([1]; Table 3): 0.318 µg/mL (≈ 0.767 µM); IC50 ([2]; Table 3, read-out: IC50 (K562)): 1 µg/mL (≈ 2.42 µM); T/C rate (%) ([6]; 6.25 mg/kg i.p.): 113.6%; IC50 [3, 8]: 1 µg/mL (≈ 2.42 µM); IC50 ([4]; SK-OV-3, Table 3, 48 hrs): 1.95 µg/mL (≈ 4.7 µM) |
| O=C(Nc1ccccc1)N1CCc2cc(S(=O)(=O)N3CC(c4ccccc4)NC3=O)ccc21 (stereo not drawn) [Example 34, 4-phenyl-1-(N-phenylcarbamoylindoline-5-sulfonyl)-4,5-dihydro-2-imidazolone] |  |  |  |  | IC50 ([1]; Table 3): 0.178 µg/mL (≈ 0.385 µM); IC50 ([2]; Table 3, read-out: IC50 (K562)): < 0.0064 µg/mL; T/C rate (%) ([6]; 6.25 mg/kg i.p.): 140.9%; IC50 [3, 8]: 1.26 µg/mL (≈ 2.72 µM); IC50 ([4]; SK-OV-3, Table 3, 48 hrs): 0.16 µg/mL (≈ 0.346 µM) |
